{"source": "patent US20140011772A1", "about": "“COMPOSITIONS AND METHODS FOR TREATING CONDITIONS ASSOCIATED WITH NEURONAL DYSFUNCTION” (NORTHWESTERN UNIVERSITY, priority 2009, published 2014)", "key": {"[1]": {"test_system": "epileptiform discharges in 4AP treated rat hippocampal slices", "test": "4AP-induced epileptiform discharges, extracellular recordings from the CA1 area of hippocampal slices", "format": "cell-based", "protocol": "A, extracellular recordings from the CA1 area of a rat hippocampal slices in which epileptic-like activity was induced by bath application of 4AP (50 μM). […] B, in another 4AP treated slice, the effects of different concentrations of FFA were tested.\nSimilar pathophysiologies exist for epilepsy and various chronic pain disorders (see, e.g., Pappagallo M (2003) Clin Ther. 25:2506-38; herein incorporated by reference in its entirety). […] Epileptic discharges were induced in a slice of rodent hippocampal tissue by bath application of the voltage-gated potassium channel blocker 4-aminopyridine (4AP) (see, e.g., Lopantsev V, Avoli M. (1998) J Physiol. 509:785-96; Brückner C, et al., Neurosci Lett. 268:163-5; each herein incorporated by reference in their entireties). […] The effect of flufenamic acid on hippocampal neurons, for example, involves induction of neuronal hyperpolarization by activating a background potassium conductance, and a reduction of neuronal excitability by inhibition of the voltage-gated sodium current.\nHippocampal brain slices: 11- to 20-day-old Long-Evans rats were anesthetized with isoflurane and killed by decapitation. The brain was removed from the skull in ice-cold artificial cerebrospinal fluid (ACSF), containing: 125 mM NaCl, 25 mM NaHCO3, 2.5 mM KCl, 1.25 mM NaH2PO4, 1.8 mM CaCl2, 1 mM MgCl2 and 2 mM 5 glucose, bubbled with 95% O2 and 5% CO2 (pH 7.4). Transverse hippocampal slices (300 μm thick) were cut using a vibroslicer (Dosaka) and stored in a solution containing: 87 mM NaCl, 25 mM NaHCO3, 2.5 mM KCl, 1.25 mM NaH2PO4, 0.5 mM CaCl2, 7 mM MgCl2, 75 mM sucrose and 25 mM glucose, bubbled with 95% O2 and 5% CO2; slices were kept at 35° C. for 15-20 minutes and subsequently at 24-25° C."}, "[2]": {"test_system": "voltage-gated sodium channels of hippocampal CA1 pyramidal neurons", "test": "Voltage-clamp nucleated patch recordings of voltage-gated sodium currents in CA1 pyramidal cells", "format": "cell-based, rat", "protocol": "To study the gating properties of the sodium channels, voltage-clamp recordings were performed in the nucleated patch configuration, which allows almost ideal voltage clamp, even for fast sodium currents (28). Recordings were performed at 24-25° C. using an Axopatch 200B (Axon Instruments) patch-clamp amplifier. Data were sampled at 20 kHz and filtered at 10 kHz. Patch pipettes had resistance of 2.5-4 MΩ (in working solution) and were pulled from Corning #0010 lead glass (WPI) or borosilicate 0.4 mm-walled glass (Dagan). The internal solution was CsCl-based and contained: 140 mM CsCl, 10 mM NaCl, 2 mM MgCl2, 10 mM EGTA, 2 mM Na2ATP, 0.1 mM NaGTP, 10 mM HEPES 10, pH 7.3 with CsOH.\nCapacitive transients were reduced by wrapping the pipettes in parafilm and compensated using the fast compensation circuitry of the amplifier. The whole-cell configuration was obtained and the pyramidal identity of cells was quickly confirmed by presence of a sag in the membrane potential in response to a hyperpolarizing current injection. The pipette was then slowly withdrawn while applying a constant negative pressure (−90 to −130 mbar). After excision, patches were held at −90 mV with a small pressure (−15 to −20 mbar). Sodium currents were then obtained by offline digital subtraction of traces in TTX from control traces.\nDrugs were applied to the patches by using a multi-barrel system consisting of 4 glass capillaries (1.5 mm ID) glued together and connected to a syringe pump (WPIL). The patch-pipette carrying the nucleated patch was inserted into each of the pipes, each containing a different extracellular solution. The system ensures that the solution speed is the same in each barrel. For these recordings, the extracellular solution consisted of HEPES-buffered ACSF: 138 mM NaCl, 10 mM HEPES, 2.5 mM KCl, 2 mM CaCl2, 1 mM MgCl2 and 25 mM glucose (pH 7.3), 50 μM CdCl2, 10 mM TEA, and the drugs of interest.\nThe voltage-dependence of activation was fit with a Boltzmann function f(V)=1/(1+exp(−(V−V1/2)/k)) raised to the third power, where V1/2 is the voltage at which the activation is half-maximal, and k is the slope factor. The voltage-dependence of inactivation was similarly determined using a Boltzmann function, f(V)=1/(1+exp ((V−V1/2)/k)). The time course of recovery from inactivation was fit with a bi-exponential equation of the form, f(t)=1-(A1 exp(−t/τ) +A2 exp(−t/τ2)), yielding two time constants (τ) and relative contribution (A).\nVoltage-gated sodium currents were recorded in nucleated patches from CA1 pyramidal cells from 11- to 20-day-old rats. FFA was tested at 0.2 mM, a concentration similar to that used as Ican blocker (0.5 mM, (32) and as two-pore potassium channels opener (0.1 mM, (40)).\nThe effect of FFA on the amplitude of sodium currents recorded in nucleated patches was investigated using a 30 ms step (to 10 mV) from −70 mV (close to the resting potential of hippocampal pyramidal neurons). 200 μM FFA blocked 34% of the sodium current (FIG. 7). The mechanism of action of FFA on sodium channels was characterized in detail. Even with a cesium-based intracellular solution and in the presence of extracellular TEA and cadmium some contaminating currents could often still be detected in pyramidal cell nucleated patches; therefore analysis was performed on TTX-subtracted traces only. TTX-sensitive current data for the control and the FFA were obtained from different patches."}, "[3]": {"test_system": "CA1 hippocampal pyramidal neurons", "test": "Whole cell current-clamp recordings, firing upon depolarizing current injection", "format": "cell-based, rat", "conditions": "FFA 0.2 mM", "protocol": "(A) Current clamp recordings obtained (at 32-33° C.) from a CA1 hippocampal neuron in response to depolarizing current injection (150 pA, 1 s, bottom) in control (top trace) and in the presence of FFA (200 μM, middle). (B) Firing frequency in response to a series of current injections (1 s, 30 pA steps) in control and in FFA.\n(§1) Electrophysiological recordings: Slices were visualized with an Axioskop 2FS (Zeiss) upright microscope with a water-immersion 60× objective (0.9 NA, Olympus). For whole cell current-clamp recordings, the bath solution contained kynurenic acid (2 mM) and picrotoxin (0.1 mM) to block fast synaptic transmission, and pipettes were filled with internal solution consisting of: 140K-gluconate, 8 mM NaCl, 2 mM MgCl2, 1 mM EGTA, 2 mM Na2ATP 2, 0.1 mM NaGTP, 10 mM HEPES, pH 7.3 with KOH.\nThe effect of FFA on burst and tonic firing of hippocampal pyramidal neurons was examined during development of embodiments of the present invention (FIG. 13). Recordings were obtained in the presence of kynurenic acid (2 mM) and picrotoxin (0.1 mM) to block fast synaptic transmission. […] For a 150 pA depolarizing current pulse the firing frequency decreased from 21.7±1.82 Hz in control conditions to 1.87±0.61 Hz in FFA (FIG. 13A,B)."}, "[4]": {"test_system": "CA1 pyramidal neurons in 4-AP bathed slices", "test": "4-AP induced burst firing, whole-cell current clamp in 4-AP bathed slices", "format": "cell-based, rat", "protocol": "The trace segments between dashed lines are shown on an expanded time scale (insets) to resolve bursts. (B) Firing frequency in response to depolarizing current injections. (C) Interspike interval ratio (ISI) against different current injections. For each current step, the ISI ratio was obtained dividing the interval between the first two spikes by the mean interspike interval. Recordings were obtained at 24-25° C.\nas §1\nExperiments were conducted during development of embodiments of the present invention to examine the inhibitory effect of FFA on burst firing. All CA1 pyramidal cells show robust burst firing in the presence of 4-Aminopyridine (4-AP), a potassium channel blocker. Whole-cell current clamp recordings were obtained from CA1 pyramidal neurons in 4-AP bathed slices. These recordings were also performed at 32-33° C. and in the presence of kynurenic acid and picrotoxin."}, "[5]": {"test_system": "SNI rats", "test": "Von Frey pain thresholds in the spared nerve injury (SNI) model of chronic neuropathic pain", "format": "in vivo, rat", "conditions": "for analgesic effect: 10 mg/kg in ethanol, oral; for analgesic effect / effect on pain threshold: 10 mg/kg; for effect on pain threshold: 10 mg/kg oral, both paws / non-operative paw", "protocol": "Von Frey thresholds (a standard measure of pain sensitivity) were measured on the operated paw (left panel) and on the contralateral paw (right panel) in adult rats. 4 animals received the drug (10 mg/kg oral administration), and 4 animals the vehicle only. […] Note the fast onset of the effect, which may be very important for clinical use.\nChronic pain constitutes a primary reason driving people to seek health care. Pain was has been described as “epidemic” by the American Academy of Pain Management (American Pain Society, 1999): 50 million Americans are partially or totally disabled by pain. […] In particular, the spared nerve injury model (SNI), a reliable animal model of chronic neuropathic pain, was used to test the effect of oral administration of FFA. Control experiments were performed administrating the vehicle only. […] KCNK channels regulate neuronal excitability by regulating membrane potential, input resistance and synaptic gain (see, e.g., Taverna S, et al., 2005, J Neurosci Oct. 5; 25(40):9162-70; Meuth S G, et al., 2003 J Neurosci. Jul. 23; 23(16):6460-9; each herein incorporated by reference in their entireties)."}, "[6]": {"conditions": "FIG. 5: 100 ms pre-pulses, 30 ms test pulse to 0 mV, 2 nucleated patches"}}, "note": "“Also recorded” adds a separate entry of the source.", "data": [{"smiles": "O=C(O)c1ccccc1Nc1cccc(C(F)(F)F)c1", "note": "[FFA, 2-[[3-(trifluoromethyl)phenyl]amino]benzoic acid]", "values": [{"measurement": "effect on epileptiform discharges", "setting": "[1]; 50 μM FFA, 4AP treated slice", "result": "small reduction in the amplitude of individual events"}, {"measurement": "effect on epileptiform discharges", "setting": "[1]; 100 μM FFA, 4AP treated slice", "result": "strongly reduced the discharge frequency"}, {"measurement": "effect on epileptiform discharges", "setting": "[1]; 200 μM FFA, 4AP 50 μM", "result": "completely and reversibly inhibited the epileptiform discharges; also recorded: completely abolished the discharges"}, {"measurement": "antiepileptic effect, concentration dependence", "setting": "[1]; 4AP treated slices, 50-200 μM", "result": "clear dose-dependent effect; also recorded: potent, concentration dependent, antiepileptic effect"}, {"measurement": "Na+ channel activation slope factor (k/3)", "setting": "[2]; 200 μM FFA", "result": "5.6±0.27", "unit": "mV"}, {"measurement": "block of the sodium current", "setting": "[2]; 200 μM FFA, 30 ms step from −70 mV", "result": 34, "unit": "%"}, {"measurement": "mean peak Na+ current amplitude", "setting": "[2]; 200 μM FFA, 50 ms prepulse to −70 mV, test pulse to −10 mV, 15 nucleated patches", "result": "−183.6±21.7", "unit": "pA"}, {"measurement": "Na+ channel activation mid-point potential", "setting": "[2]; 200 μM FFA, Boltzmann raised to third power", "result": "−11.3±1.36", "unit": "mV"}, {"measurement": "shift in voltage dependence of inactivation", "setting": "[2]; 50 ms prepulse", "result": "~12", "unit": "mV"}, {"measurement": "steady-state inactivation mid-point potential", "setting": "[2]; 50 ms prepulse, in FFA", "result": "−67.8±1.4", "unit": "mV"}, {"measurement": "steady-state inactivation slope factor", "setting": "[2]; 50 ms prepulse, in FFA", "result": "10.7±0.5", "unit": "mV"}, {"measurement": "steady-state inactivation mid-point potential", "setting": "[2]; 200 ms prepulse, in FFA", "result": "−74.1±2.6", "unit": "mV"}, {"measurement": "steady-state inactivation slope factor", "setting": "[2]; 200 ms prepulse, in FFA", "result": "8.9±1.0", "unit": "mV"}, {"measurement": "sodium channel inactivation Boltzmann function half point", "setting": "[2]; [6]", "result": "−89.7", "unit": "mV"}, {"measurement": "sodium channel inactivation Boltzmann slope", "setting": "[2]; [6]", "result": 9.1, "unit": "mV"}, {"measurement": "time constant of inactivation onset", "setting": "[2]; at 0 mV, in FFA (0.2 mM)", "result": "0.70 ± 0.03", "unit": "ms"}, {"measurement": "fraction of sodium channels available for activation", "setting": "[2]; at −70 mV, in FFA", "result": "0.57±0.04"}, {"measurement": "effect on the sodium channel activation curve", "setting": "[2]; hippocampal pyramidal neurons", "result": "No significant effect; also recorded: only minimal effect"}, {"measurement": "firing frequency", "setting": "[3]; 150 pA, 1 s depolarizing current pulse, kynurenic acid and picrotoxin", "result": "1.87±0.61", "unit": "Hz"}, {"measurement": "effect on number of action potentials / repetitive firing", "setting": "[3]; 1 s-long depolarizing current injection", "result": "strongly decreased the number of action potentials; also recorded: effectively decreases repetitive firing"}, {"measurement": "effect on spikes and burst firing", "setting": "[4]; 4-AP slice epilepsy model, bath application of FFA", "result": "dramatically reduced both the total number of spikes and bursting; also recorded: completely abolishes burst firing"}, {"measurement": "interspike interval (ISI) ratio", "setting": "[4]; 120 pA current injection, 4-AP, FFA 0.2 mM", "result": "0.74±0.06"}, {"measurement": "analgesic effect", "setting": "[5]", "result": "rapid and potent analgesic effect"}, {"measurement": "analgesic effect", "setting": "[5]; listed as flufenamic acid", "result": "potent analgesic effect"}, {"measurement": "increase of Von Frey threshold on the injured paw", "setting": "[5]; 10 mg/kg oral administration, operated paw", "result": "more than 10 times"}, {"measurement": "effect on pain threshold", "setting": "[5]", "result": "significantly increased the pain threshold in the non-operative paw"}, {"measurement": "effect on pain threshold", "setting": "[5]; listed as flufenamic acid", "result": "increased pain threshold in both paws"}]}]}
